Experimental data: BindingDB's records for doi:10.1016/j.bmc.2019.115161 (Iwate University, 2019)

Key:
[1] = Inhibition of caspase-like activity of beta1 subunit of 20S proteasome in human erythrocytes using Z-LLE-MCA as substrate preincubated with enzyme for 10 mins followed by substrate addition and measured after 3 hrs by fluorescence spectrophotometeric analysis
[2] = Inhibition of trypsin-like activity of beta2 subunit of 20S proteasome in human erythrocytes using Boc-LRR-MCA as substrate preincubated with enzyme for 10 mins followed by substrate addition and measured after 3 hrs by fluorescence spectrophotometric analysis

Row | Structure (SMILES) | IC50 [1] [µM] | IC50 [2] [µM]
1 | C=C1CC[C@H]2C(C)(C)[C@H](O)CC[C@]2(C)[C@H]1C[C@]12O[C@H]1[C@H](O)C(CO)=CC2=O | > 100 | > 100
2 | C=C1CC[C@H]2C(C)(C)[C@H](O)CC[C@]2(C)[C@H]1C[C@]12O[C@H]1[C@H](O)C(COC(=O)C[C@H](C)O)=CC2=O | 30.1 | > 100
3 | C=C1CC[C@H]2C(C)(C)[C@H](O)CC[C@]2(C)[C@H]1C[C@]12O[C@H]1C(=O)C(CO)=CC2=O | 17.8 | 76.1

Further molecules by falling IC50 [1], results first:

Row | IC50 [1] [µM] | IC50 [2] [µM] | Structure (SMILES)
4 | 87.3 | > 100 | C=C1CC[C@H]2C(C)(C)[C@H](O)CC[C@]2(C)[C@H]1C[C@]12O[C@H]1[C@H](O)C(COC(=O)[C@H](O)[C@H](C)O)=CC2=O
5 | 5.2 | 27.9 | C=C1CC[C@H]2C(C)(C)[C@H](O)CC[C@]2(C)[C@H]1C[C@]12O[C@H]1C(=O)C(COC(=O)[C@H](O)[C@H](C)O)=CC2=O
6 | 3.9 | 22.5 | C=C1CC[C@H]2C(C)(C)[C@H](O)CC[C@]2(C)[C@H]1C[C@]12O[C@H]1C(=O)C(COC(=O)C[C@H](C)O)=CC2=O
